From the supplement of paper PMC10307832

Tests used:
Experiment in all cases: relative viability (nuclei count vs DMSO), 5 days (fraction); higher = more cells survive
AGI-6780 + Lapatinib = compound: O=C(Nc1cccc(C(F)(F)F)c1)Nc1cc(S(=O)(=O)NC2CC2)ccc1-c1ccsc1 [AGI-6780] + CS(=O)(=O)CCNCc1ccc(-c2ccc3ncnc(Nc4ccc(OCc5cccc(F)c5)c(Cl)c4)c3c2)o1 [Lapatinib] (partner 2 µM)
In short: (§1)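 Each reported value is a median over duplicate plates. It expresses relative viability: treated-well nuclei count divided by vehicle-well nuclei count. Lung cancer cell lines in 1536-well plates were dosed by pin tool a day after seeding, alone with one drug or with a fixed anchor-drug dose plus five library-drug doses (not always all listed) in √10 steps, and nuclei were counted after 5 days.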

AGI-6780 + Olaparib = compound: O=C(Nc1cccc(C(F)(F)F)c1)Nc1cc(S(=O)(=O)NC2CC2)ccc1-c1ccsc1 [AGI-6780] + O=C(c1cc(Cc2n[nH]c(=O)c3ccccc23)ccc1F)N1CCN(C(=O)C2CC2)CC1 [Olaparib] (partner 8 µM)
In short: as §1

AGI-6780 + Phenformin = compound: O=C(Nc1cccc(C(F)(F)F)c1)Nc1cc(S(=O)(=O)NC2CC2)ccc1-c1ccsc1 [AGI-6780] + N=C(N)NC(=N)NCCc1ccccc1 [Phenformin] (partner 250 µM)
In short: as §1

AGI-6780 + Trametinib = compound: O=C(Nc1cccc(C(F)(F)F)c1)Nc1cc(S(=O)(=O)NC2CC2)ccc1-c1ccsc1 [AGI-6780] + CC(=O)Nc1cccc(-n2c(=O)n(C3CC3)c(=O)c3c(Nc4ccc(I)cc4F)n(C)c(=O)c(C)c32)c1 [Trametinib] (partner 0.02 µM)
In short: as §1

| Cell Line | relative viability (AGI-6780 + Lapatinib; first compound 0.08 µM) | relative viability (AGI-6780 + Lapatinib; first compound 0.253 µM) | relative viability (AGI-6780 + Lapatinib; first compound 0.8 µM) | relative viability (AGI-6780 + Lapatinib; first compound 2.53 µM) | relative viability (AGI-6780 + Lapatinib; first compound 8 µM) | relative viability (AGI-6780 + Olaparib; first compound 0.08 µM) | relative viability (AGI-6780 + Olaparib; first compound 0.253 µM) | relative viability (AGI-6780 + Olaparib; first compound 0.8 µM) | relative viability (AGI-6780 + Olaparib; first compound 2.53 µM) | relative viability (AGI-6780 + Olaparib; first compound 8 µM) | relative viability (AGI-6780 + Phenformin; first compound 0.08 µM) | relative viability (AGI-6780 + Phenformin; first compound 0.253 µM) | relative viability (AGI-6780 + Phenformin; first compound 0.8 µM) | relative viability (AGI-6780 + Phenformin; first compound 2.53 µM) | relative viability (AGI-6780 + Phenformin; first compound 8 µM) | relative viability (AGI-6780 + Trametinib; first compound 0.08 µM) | relative viability (AGI-6780 + Trametinib; first compound 0.253 µM) | relative viability (AGI-6780 + Trametinib; first compound 0.8 µM) | relative viability (AGI-6780 + Trametinib; first compound 2.53 µM) | relative viability (AGI-6780 + Trametinib; first compound 8 µM) |
| --- | --- | --- | --- | --- | --- | --- | --- | --- | --- | --- | --- | --- | --- | --- | --- | --- | --- | --- | --- | --- |
| NCI-H650 | 0.922 | 1.07 | 1.17 | 0.859 | 1.05 | 0.349 | 0.413 | 0.437 | 0.303 | 0.388 | 0.447 | 0.502 | 0.451 | 0.435 | 0.438 | 0.989 | 1.07 | 0.935 | 0.823 | 0.964 |
| UMC-11 | 1.03 | 0.92 | 1.09 |  | 1.16 | 0.393 | 0.38 | 0.4 |  | 0.434 | 0.336 | 0.344 | 0.336 |  | 0.365 | 0.657 | 0.708 | 0.812 |  | 0.902 |
| NCI-H460 | 0.872 | 1.03 | 1.03 | 1.07 | 1.11 | 0.413 | 0.444 | 0.487 | 0.291 | 0.447 | 0.529 | 0.527 | 0.568 | 0.585 | 0.524 | 0.286 | 0.149 | 0.117 | 0.1 | 0.167 |
| NCI-H727 | 1.05 | 0.961 | 0.93 | 0.712 | 0.811 | 0.65 | 0.757 | 0.705 | 0.597 | 0.66 | 0.62 | 0.536 | 0.687 | 0.563 | 0.698 | 0.415 | 0.396 | 0.372 | 0.365 | 0.38 |
| SK-MES-1 | 0.482 | 0.524 | 0.441 | 0.407 | 0.427 | 0.738 | 0.667 | 0.628 | 0.643 | 0.592 | 0.689 | 0.647 | 0.623 | 0.665 | 0.683 | 0.549 | 0.577 | 0.509 | 0.532 | 0.493 |
| NCI-H1915 | 0.96 | 0.989 | 0.988 | 0.982 | 0.977 | 0.25 | 0.292 | 0.258 | 0.208 | 0.26 | 0.37 | 0.371 | 0.369 | 0.374 | 0.376 | 0.314 | 0.304 | 0.298 | 0.246 | 0.274 |
| NCI-H1437 | 0.825 | 0.834 | 0.863 | 0.838 | 0.941 | 0.677 | 0.638 | 0.639 | 0.63 | 0.572 | 0.337 | 0.382 | 0.298 | 0.327 | 0.343 | 0.537 | 0.548 | 0.512 | 0.406 | 0.522 |
| CAL-12T |  | 0.582 | 0.876 | 0.572 | 0.619 | 0.712 | 0.662 | 0.648 | 0.667 | 0.78 | 0.61 | 0.579 | 0.626 | 0.632 | 0.566 | 0.307 | 0.425 | 0.306 | 0.309 | 0.321 |
| NCI-H2405 | 1.05 | 1.08 | 0.938 |  | 1.1 |  | 0.85 | 0.776 | 0.838 | 0.758 | 0.431 | 0.381 | 0.279 | 0.339 | 0.382 |  | 0.649 | 0.57 | 0.492 | 0.583 |
| LOU-NH91 | 0.773 | 0.836 | 0.78 | 0.587 | 0.737 | 0.942 | 0.887 | 0.94 | 0.912 | 0.89 | 0.707 | 0.659 | 0.774 | 0.677 | 0.698 | 0.826 | 0.777 | 0.765 | 0.751 | 0.824 |
| EPLC-272H | 0.921 | 0.949 | 0.881 | 0.747 | 1.11 | 0.748 | 0.827 | 0.633 | 0.732 | 0.942 |  | 0.341 | 0.243 | 0.28 | 0.274 | 0.285 | 0.328 | 0.291 | 0.254 | 0.312 |
| NCI-H1993 | 0.91 | 0.86 | 0.804 | 0.749 | 0.933 | 0.831 | 1.11 | 1.13 |  | 1.09 | 0.419 | 0.51 | 0.495 | 0.499 | 0.54 | 0.639 | 0.562 | 0.535 |  | 0.604 |
| BEN | 0.569 | 0.703 | 0.91 |  | 0.637 | 1.02 | 1.02 | 1.22 |  | 0.961 | 0.25 | 0.281 | 0.289 | 0.288 | 0.28 | 0.897 | 0.999 | 1.14 |  | 0.993 |
| NCI-H1734 | 0.961 | 1.09 | 1.07 |  | 1.07 | 0.722 | 0.633 | 0.654 | 0.492 | 0.574 | 0.395 | 0.427 | 0.45 | 0.305 | 0.377 | 0.74 | 0.646 | 0.63 | 0.474 | 0.758 |
| NCI-H2347 | 0.904 | 0.874 | 0.688 | 0.879 | 0.93 | 0.564 | 0.561 | 0.569 | 0.597 | 0.592 | 0.424 | 0.574 | 0.378 | 0.351 | 0.373 | 0.276 | 0.289 | 0.278 | 0.287 | 0.274 |
| NCI-H647 | 0.919 | 1.18 | 1.06 | 0.955 | 1.3 | 0.622 | 0.579 | 0.705 | 0.479 | 0.488 | 0.409 | 0.609 | 0.729 | 0.408 | 0.744 | 0.499 | 0.505 | 0.476 | 0.45 | 0.474 |
| COR-L 105 | 0.358 | 0.357 | 0.437 | 0.343 | 0.324 | 0.632 | 0.466 | 0.707 | 0.66 | 0.541 | 0.407 | 0.461 | 0.507 | 0.524 | 0.539 | 0.465 | 0.576 | 0.464 | 0.397 | 0.351 |
